Laboratory results from patent publication US4366162A, “Aryl ethers of N-alkyl-piperidines and acid addition salts thereof” (AB Ferrosan, priority 1977, dated 1982).
Converted amounts (≈) assume the structure as drawn. Like-named read-outs stand apart in the source and are kept apart here.

What was measured:
[1] = system: amphetamine induced behavioural stereotypies; test: Anti-amphetamine test: inhibition of compulsory gnawing and chewing responses to amphetamine; format: in vivo, Sprague Dawley female rats; conditions: Rattus norvegicus, sc, read-out: ED50, Anti-amphetamine test
Method: Conventional types of neuroleptics are potent inhibitors of amphetamine induced behavioural stereotypies. One determines in Sprague Dawley female rats the ability of subcutaneously administered compounds to inhibit compulsory gnawing and chewing responses to a subcutaneous dose of 10 mg/kg of amphetamine administered half an hour after the compound to be tested. The new compounds of formula I are weak antagonists in this test.
(§1) The ED50 -values expressed in milligrams per kilogram body weight in the anti-amphetamine test, in the anti-apomorphine test and in the inhibition of aggression test are presented in Table I.

[2] = system: apomorphine induced emesis; test: Anti-apomorphine test: antagonism of apomorphine induced emesis; format: in vivo, dogs; conditions: Canis lupus familiaris, sc, read-out: ED50, Anti-apomorphine test
Method: All typical chloropromazine-like neuroleptics are powerful antagonists of apomorphine induced emesis in dogs by virtue of their blocking action on the chemo-emetic trigger zone. The compounds listed in Table I were administered subcutaneously. The animals were challenged half an hour after subcutaneous administration with a standard dose of 0.06 mg/kg of apomorphine hydrochloride (subcutaneously). […] The ED50 -values expressed in milligrams per kilogram body weight in the anti-amphetamine test, in the anti-apomorphine test and in the inhibition of aggression test are presented in Table I.

[3] = system: isolation induced aggressive behaviour; test: Isolation induced aggressive behaviour test (inhibition of aggression); format: in vivo, Male albino mice; conditions: Mus musculus, sc, 1 h, read-out: ED50, Inhibition aggression test
Method: Male albino mice were used. Tests were conducted 60 minutes after subcutaneous drug administration.
as §1

[4] = system: acetylcholine induced contraction of guinea pig ileum; test: Anticholinergic activity: acetylcholine induced contraction of guinea pig ileum; conditions: acetylcholine 0.02 μg/ml, 50% inhibition of the contraction
[5] = system: histamine induced contraction of guinea pig ileum; test: Antihistaminic activity: histamine induced contraction of guinea pig ileum; conditions: histamine 0.2 μg/ml, 50% inhibition of the contraction
[6] = system: serotonin induced contraction of the rat ileum; test: Antiserotoninergic activity: serotonin induced contraction of the rat ileum; conditions: serotonin 220 ng/ml, 50% inhibition of the contraction
Method: They show antiserotoninergic activity evaluated from the effects on serotonin (220 ng/ml) induced contraction of the rat ileum.

[7] = male albino mice, 60 minutes after subcutaneous administration

Structure (SMILES)	ED50 [1] [mg/kg]	ED50 [2] [mg/kg]	ED50 [3] [mg/kg]	ED50, Anticholinergic activity [4]	ED50, Antihistaminic activity [5]	ED50, Antiseroto-ninergic activity [6]	ED50 ([1]; rats, subcutaneous, half an hour before 10 mg/kg amphetamine s.c.) [mg/kg]	ED50 ([2]; dogs, subcutaneous, half an hour before 0.06 mg/kg apomorphine hydrochloride s.c.) [mg/kg]	ED50 [3, 7] [mg/kg]
CN(C)CCCN1c2ccccc2Sc2ccc(Cl)cc21 [Chlorpromazine, chlorpromazine]	1.2	0.7	0.4	1,7 μg/ml	0,03 μg/ml	6 µg/mL (≈ 18.8 µM)	–	–	–
O=C(CCCN1CCC(O)(c2ccc(Cl)cc2)CC1)c1ccc(F)cc1 [Haloperidol, haloperidol]	0.03	–	0.8	–	–	–	–	–	–
COc1cc(C(C)=O)ccc1OCCCN1CCC(O)(C(=O)c2ccc(F)cc2)CC1 [I, 1-[3-(p-acetyl-o-methoxyphenoxy)-propyl]-4-(p-fluorobenzoyl)-4-hydroxypiperidine]	–	–	–	> 100 µg/mL	0,06 μg/ml	0,1 μg/ml	20	7.1	0.5
CCC(=O)OC1(C(=O)c2ccc(F)cc2)CCN(CCCOc2ccc(C(C)=O)cc2OC)CC1 [III]	–	–	–	–	–	–	–	–	2
COc1cc(C(C)=O)ccc1OCCCCN1CCC(O)(C(=O)c2ccc(F)cc2)CC1 [II]	–	–	–	–	–	–	–	–	1.5
